# Measured values taken from publication PMC3397443, “Sinularones A–I, New Cyclopentenone and Butenolide Derivatives from a Marine Soft Coral Sinularia sp. and Their Antifouling Activity” (Marine Drugs, 2012).
# Where two headings read alike, the source gives them in different places.
# Legend:
# [1] = test system: larvae of the barnacle Balanus amphitrite; experiment: Larval settlement bioassay (antifouling activity); format: in vivo; conditions: for EC50: Amphibalanus amphitrite, read-out: Balanus amphitrite Larvae EC50
# Method: (§1) All compounds were tested for their cytotoxicity against a panel of tumor cell lines including human ovarian carcinoma A2780, human lung adenocarcinoma A549, human gastric carcinoma BGC823, human hepatoma Bel7402, and human colonic carcinoma HCT-8. […] In order to detect whether these compounds play a role for ecological functions, the test for antifouling activity against the larvae of the barnacle Balanus amphitrite was performed. […] A primary discussion of structure-activity relationship implied that α,β-unsaturated 2,3-dimethyl-γ-lactone is a functional unit for anti-barnacle.
# (§2) Adults of the barnacle Balanus amphitrite Darwin were exposed to air for more than 6 h, and then were placed in a container filled with fresh 0.22 µm filtered sea water (FSW) to release nauplii. The collected nauplii were reared to cyprid stage according to the method described by Thiyagarajan et al.. When kept at 26–28 °C and fed with Chaetoceros gracilis, larvae developed to cyprids within four days. Fresh cyprids were used in the tests.
# [2] = Toxicity against barnacle larvae (LC50); conditions: Balanus amphitrite (barnacle), in vivo; concentration required to kill 50% of larvae of a tested population
# Method: as §1, §2
# [3] = concentration where 50% of larval population was inhibited to settle compared to control, cyprids
Compound,"EC50 [1, 3] [µg/mL]",LC50 [2] [µg/mL],EC50 [1] [µg/mL],antifouling activity (in words) ([1]; against the barnacle Balanus amphitrite)
"CC(=O)CC/C=C(/C)C[C@@H]1CC(C)(C)CC1=O [Compound 1, Sinularone A]",13.9,> 50,,
"CCCCC[C@@]1(O)C(C)=C(C)C(=O)[C@H]1CC(=O)OCC [Compound 2, Sinularone B]",23.5,> 50,,
"CCOC(=O)CC[C@]1(O)OC(=O)C(C)=C1C [Compound 7, Sinularone G]",18.6,> 50,,
"CCO[C@@]1(CCC(=O)OC)OC(=O)C(C)=C1C [Compound 8, Sinularone H]",21.4,> 50,,
"CCOC(=O)CCCCCCCCCCCC[C@]1(O)OC(=O)C(C)=C1C [Compound 9, Sinularone I]",12.6,> 50,,
"CCCCC[C@]1(O)OC(=O)C(C)=C1C [Compound 10, (S)-4-hydroxy-2,3-dimethyl-4-pentyl-γ-lactone]",,> 50,3.84,the most active
